# According to patent publication US10246426B2, “Triazole compounds as T-type calcium channel blockers” (IDORSIA PHARMACEUTICALS LTD, priority 2014, dated 2019):
# Target: Cav3.2 (Homo sapiens, UniProt O95180)
# Experiment: Calcium flux FLIPR assay, HEK293 cells recombinantly expressing Cav3.2
# Format: cell-based
# Settings: Cav3.2-channel, Ca2+ entry stimulated by 10 mM CaCl2
# In short: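 Fluo-4-loaded HEK293 cells stably expressing Cav3.2, seeded overnight at 37 °C; compounds diluted in TEAC buffer (pH 7.2) and preincubated 3 min before Ca2+ entry triggered with CaCl2 at 10 mM final. Area under FLIPR fluorescence trace fitted sigmoidally; IC50 relative to vehicle signal.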
# Chain of Cav3.2 (O95180 whole entry, looked up): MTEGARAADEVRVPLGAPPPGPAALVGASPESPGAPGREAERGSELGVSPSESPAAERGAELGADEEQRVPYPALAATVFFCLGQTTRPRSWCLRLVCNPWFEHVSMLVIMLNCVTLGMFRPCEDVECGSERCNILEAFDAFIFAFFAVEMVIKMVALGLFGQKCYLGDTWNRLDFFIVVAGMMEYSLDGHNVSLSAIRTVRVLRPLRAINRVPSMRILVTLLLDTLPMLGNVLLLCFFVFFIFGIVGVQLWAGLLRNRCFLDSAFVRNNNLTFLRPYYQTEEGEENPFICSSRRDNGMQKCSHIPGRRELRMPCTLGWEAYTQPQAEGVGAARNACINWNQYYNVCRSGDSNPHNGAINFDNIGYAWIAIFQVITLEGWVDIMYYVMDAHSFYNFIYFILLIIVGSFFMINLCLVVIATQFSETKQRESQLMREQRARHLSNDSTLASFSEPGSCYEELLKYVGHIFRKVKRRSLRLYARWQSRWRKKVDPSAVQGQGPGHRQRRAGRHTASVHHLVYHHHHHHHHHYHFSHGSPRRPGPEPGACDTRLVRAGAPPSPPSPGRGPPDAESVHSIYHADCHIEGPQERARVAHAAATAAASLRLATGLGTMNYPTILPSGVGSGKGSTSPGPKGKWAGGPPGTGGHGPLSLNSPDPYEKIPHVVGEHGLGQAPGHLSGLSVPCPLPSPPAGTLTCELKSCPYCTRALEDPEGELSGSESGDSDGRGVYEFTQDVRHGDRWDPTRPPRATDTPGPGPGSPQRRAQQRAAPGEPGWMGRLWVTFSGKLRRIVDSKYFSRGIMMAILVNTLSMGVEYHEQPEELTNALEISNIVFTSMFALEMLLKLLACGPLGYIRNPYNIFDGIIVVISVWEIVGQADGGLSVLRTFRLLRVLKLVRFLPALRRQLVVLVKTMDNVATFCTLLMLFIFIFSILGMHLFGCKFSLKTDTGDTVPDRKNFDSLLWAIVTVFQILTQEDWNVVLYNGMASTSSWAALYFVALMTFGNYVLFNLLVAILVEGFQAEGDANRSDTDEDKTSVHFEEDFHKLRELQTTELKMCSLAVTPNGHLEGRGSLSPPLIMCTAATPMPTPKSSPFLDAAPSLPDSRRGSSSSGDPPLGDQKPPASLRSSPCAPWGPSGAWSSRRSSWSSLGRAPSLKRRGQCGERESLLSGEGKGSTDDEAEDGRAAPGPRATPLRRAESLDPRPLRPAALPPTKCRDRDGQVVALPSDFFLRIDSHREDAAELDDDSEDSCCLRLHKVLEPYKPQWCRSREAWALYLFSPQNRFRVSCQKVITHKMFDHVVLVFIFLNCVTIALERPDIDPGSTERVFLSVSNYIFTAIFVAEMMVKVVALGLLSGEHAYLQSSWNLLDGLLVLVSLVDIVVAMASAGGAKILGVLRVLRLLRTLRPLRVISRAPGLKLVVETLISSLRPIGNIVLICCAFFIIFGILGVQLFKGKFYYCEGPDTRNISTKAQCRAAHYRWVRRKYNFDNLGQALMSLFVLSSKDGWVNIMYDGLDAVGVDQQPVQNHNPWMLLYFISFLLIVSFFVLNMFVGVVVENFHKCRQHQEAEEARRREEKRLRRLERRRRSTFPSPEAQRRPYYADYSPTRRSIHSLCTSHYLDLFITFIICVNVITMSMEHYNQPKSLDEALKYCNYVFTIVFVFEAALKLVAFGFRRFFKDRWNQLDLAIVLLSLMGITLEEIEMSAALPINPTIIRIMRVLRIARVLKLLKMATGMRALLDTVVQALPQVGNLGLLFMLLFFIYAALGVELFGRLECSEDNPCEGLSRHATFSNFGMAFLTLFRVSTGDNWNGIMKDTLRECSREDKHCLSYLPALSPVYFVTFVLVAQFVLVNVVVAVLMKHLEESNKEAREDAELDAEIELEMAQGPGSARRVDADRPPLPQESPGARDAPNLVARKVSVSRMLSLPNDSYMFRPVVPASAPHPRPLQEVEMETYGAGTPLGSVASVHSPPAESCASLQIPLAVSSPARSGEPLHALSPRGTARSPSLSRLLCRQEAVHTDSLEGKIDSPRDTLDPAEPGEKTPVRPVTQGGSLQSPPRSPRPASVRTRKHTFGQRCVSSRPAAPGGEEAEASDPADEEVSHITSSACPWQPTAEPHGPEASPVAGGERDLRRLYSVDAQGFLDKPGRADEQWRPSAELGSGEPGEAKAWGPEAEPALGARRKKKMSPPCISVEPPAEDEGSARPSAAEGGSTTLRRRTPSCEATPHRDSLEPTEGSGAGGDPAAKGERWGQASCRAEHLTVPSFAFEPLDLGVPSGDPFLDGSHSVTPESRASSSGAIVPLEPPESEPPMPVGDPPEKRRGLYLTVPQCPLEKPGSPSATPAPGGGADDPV
row,SMILES,IC50
1,"COc1cc(Cn2ncc(NC(=O)Cc3ccc4c(c3)c(C)nn4C)n2)cc(F)c1F [Example 210, N-[2-(3,4-Difluoro-5-methoxy-benzyl)-2H-[1,2,3]triazol-4-yl]-2-(1,3-dimethyl-1H-indazol-5-yl)-acetamide]",260 nM
2,"CCn1ncc2cc(CC(=O)Nc3cnn(Cc4ccc(OC)c(F)c4)n3)ccc21 [Example 128, 2-(1-Ethyl-1H-indazol-5-yl)-N-[2-(3-fluoro-4-methoxy-benzyl)-2H-[1,2,3]triazol-4-yl]-acetamide]",150 nM
3,"Cc1ccc(Cn2ncc(NC(=O)Cc3ccc4cnn(C)c4c3)n2)cc1C#N [Example 215, N-[2-(3-Cyano-4-methyl-benzyl)-2H-[1,2,3]triazol-4-yl]-2-(1-methyl-1H-indazol-6-yl)-acetamide]",650 nM
4,"COc1ccc(Cn2ncc(NC(=O)Cc3ccc(N4CCC(F)(F)C4)nc3)n2)cc1OC [Example 48, 2-[6-(3,3-Difluoro-pyrrolidin-1-yl)-pyridin-3-yl]-N-[2-(3,4-dimethoxy-benzyl)-2H-[1,2,3]triazol-4-yl]-acetamide]",530 nM
5,"COC1(c2ccc(CC(=O)Nc3cnn(Cc4ccc(C#N)cc4)n3)cc2)COC1 [Example 237, N-[2-(4-Cyano-benzyl)-2H-[1,2,3]triazol-4-yl]-2-[4-(3-methoxy-oxetan-3-yl)-phenyl]-acetamide]",200 nM
6,"O=C(Cc1ccc(OC2CCC2)cc1)Nc1cnn(Cc2ccc(F)c(F)c2)n1 [Example 9, 2-(4-Cyclobutoxy-phenyl)-N-[2-(3,4-difluoro-benzyl)-2H-[1,2,3]triazol-4-yl]-acetamide]",22 nM
7,"N#Cc1ccc(Cn2ncc(NC(=O)Cc3ccc(C4(C#N)CC4)cc3)n2)cc1F [Example 231, 2-[4-(1-Cyano-cyclopropyl)-phenyl]-N-[2-(4-cyano-3-fluoro-benzyl)-2H-[1,2,3]triazol-4-yl]-acetamide]",36 nM
8,"Cn1ccc2cc(CC(=O)Nc3cnn(Cc4ccc(C#N)c(F)c4)n3)ccc21 [Example 70, N-[2-(4-Cyano-3-fluoro-benzyl)-2H-[1,2,3]triazol-4-yl]-2-(1-methyl-1H-indol-5-yl)-acetamide]",18 nM
9,"COc1cc(Cn2ncc(NC(=O)Cc3ccc(N4CCC(F)(F)C4)nc3)n2)ccc1F [Example 115, 2-[6-(3,3-Difluoro-pyrrolidin-1-yl)-pyridin-3-yl]-N-[2-(4-fluoro-3-methoxy-benzyl)-2H-[1,2,3]triazol-4-yl]-acetamide]",45 nM
10,"Cc1cn(C)c2ccc(CC(=O)Nc3cnn(Cc4ccc(C#N)cc4)n3)cc12 [Example 100, N-[2-(4-Cyano-benzyl)-2H-[1,2,3]triazol4-yl]-2-(1,3-dimethyl-1H-indol-5-yl)-acetamide]",22 nM
11,"COc1ccc(Cn2ncc(NC(=O)Cc3ccc(C4(C(F)(F)F)CC4)cc3)n2)cc1F [Example 124, N-[2-(3-Fluoro-4-methoxy-benzyl)-2H-[1,2,3]triazol-4-yl]-2-[4-(1-trifluoromethyl-cyclopropyl)-phenyl]-acetamide]",250 nM
12,"Cc1cn(C)c2ccc(CC(=O)Nc3cnn(Cc4ccc(C#N)cn4)n3)cc12 [Example 243, N-[2-(5-Cyano-pyridin-2-ylmethyl)-2H-[1,2,3]triazol-4-yl]-2-(1,3-dimethyl-1H-indol-5-yl)-acetamide]",110 nM
13,"COc1ccc(Cn2ncc(NC(=O)Cc3ccc4c(ccn4C)c3)n2)cc1 [Example 57, N-[2-(4-Methoxy-benzyl)-2H-[1,2,3]triazol-4-yl]-2-(1-methyl-1H-indol-5-yl)-acetamide]",38 nM
14,"COc1cc(Cn2ncc(NC(=O)Cc3ccc(C4(C(F)(F)F)CC4)cc3)n2)ccc1F [Example 113, N-[2-(4-Fluoro-3-methoxy-benzyl)-2H-[1,2,3]triazol-4-yl]-2-[4-(1-trifluoromethyl-cyclopropyl)-phenyl]-acetamide]",230 nM
15,"Cc1ccc(Cn2ncc(NC(=O)Cc3ccc(C(C)(C)C)cc3)n2)cc1C#N [Example 217, 2-(4-tert-Butyl-phenyl)-N-[2-(3-cyano-4-methyl-benzyl)-2H-[1,2,3]triazol-4-yl]-acetamide]",160 nM
16,"Cc1ccc(Cn2ncc(NC(=O)Cc3ccc(OCC4(F)COC4)cc3)n2)cc1C#N [Example 200, N-[2-(3-Cyano-4-methyl-benzyl)-2H-[1,2,3]triazol-4-yl]-2-[4-(3-fluoro-oxetan-3-ylmethoxy)-phenyl]-acetamide]",410 nM
17,"Cc1ccc(Cn2ncc(NC(=O)Cc3ccc(C4(C(F)(F)F)CC4)cc3)n2)cc1C#N [Example 226, N-[2-(3-Cyano-4-methyl-benzyl)-2H-[1,2,3]triazol-4-yl]-2-[4-(1-trifluoromethyl-cyclopropyl)-phenyl]-acetamide]",250 nM
18,"COc1ccc(Cn2ncc(NC(=O)Cc3ccc(C(C)(C)C)cc3)n2)cc1OC [Example 49, 2-(4-tert-Butyl-phenyl)-N-[2-(3,4-dimethoxy-benzyl)-2H-[1,2,3]triazol-4-yl]-acetamide]",170 nM

row,SMILES,IC50
1,"Cn1ncc2cc(CC(=O)Nc3cnn(Cc4ccc(F)cc4)n3)ccc21 [Example 56, N-[2-(4-Fluoro-benzyl)-2H-[1,2,3]triazol-4-yl]-2-(1-methyl-1H-indazol-5-yl)-acetamide]",38 nM
2,"COc1ccc(Cn2ncc(NC(=O)Cc3ccc(C4(C)COC4)cc3)n2)cc1 [Example 60, N-[2-(4-Methoxy-benzyl)-2H-[1,2,3]triazol-4-yl]-2-[4-(3-methyl-oxetan-3-yl)-phenyl]-acetamide]",120 nM
3,"O=C(Cc1ccc(N2CCC(F)(F)C2)nc1)Nc1cnn(Cc2ccc(F)cc2)n1 [Example 94, 2-[6-(3,3-Difluoro-pyrrolidin-1-yl)-pyridin-3-yl]-N-[2-(4-fluoro-benzyl)-2H-[1,2,3]triazol-4-yl]-acetamide]",10 nM
4,"COc1ccc(Cn2ncc(NC(=O)Cc3ccc(C(C)(C)C)cc3)n2)cc1C#N [Example 202, 2-(4-tert-Butyl-phenyl)-N-[2-(3-cyano-4-methoxy-benzyl)-2H-[1,2,3]triazol-4-yl]-acetamide]",320 nM
5,"CC(C)c1ccc(CC(=O)Nc2cnn(Cc3ccc(F)cc3)n2)cc1 [Example 1, N-[2-(4-Fluoro-benzyl)-2H-[1,2,3]triazol4-yl]-2-(4-isopropyl-phenyl)-acetamide]",21 nM
6,"Cc1nn(C)c2ccc(CC(=O)Nc3cnn(Cc4ccc(C#N)cc4)n3)cc12 [Example 102, N-[2-(4-Cyano-benzyl)-2H-[1,2,3]triazol-4-yl]-2-(1,3-dimethyl-1H-indazol-5-yl)-acetamide]",160 nM
7,"COc1cc(Cn2ncc(NC(=O)Cc3ccc(OCC4(F)COC4)cc3)n2)cc(F)c1F [Example 229, N-[2-(3,4-Difluoro-5-methoxy-benzyl)-2H-[1,2,3]triazol-4-yl]-2-[4-(3-fluoro-oxetan-3-ylmethoxy)-phenyl]-acetamide]",130 nM
8,"CC(C)(c1ccc(CC(=O)Nc2cnn(Cc3ccc(C#N)c(F)c3)n2)cc1)C(F)(F)F [Example 249, N-[2-(4-Cyano-3-fluoro-benzyl)-2H-[1,2,3]triazol-4-yl]-2-[4-(2,2,2-trifluoro-1,1-dimethyl-ethyl)-phenyl]-acetamide]",91 nM
9,"COc1cc(Cn2ncc(NC(=O)Cc3ccc(C4(F)COC4)cc3)n2)cc(F)c1F [Example 224, N-[2-(3,4-Difluoro-5-methoxy-benzyl)-2H-[1,2,3]triazol-4-yl]-2-[4-(3-fluoro-oxetan-3-yl)-phenyl]-acetamide]",190 nM
10,"Cc1cc(Cn2ncc(NC(=O)Cc3ccc4cnn(C)c4c3)n2)ccc1C#N [Example 163, N-[2-(4-Cyano-3-methyl-benzyl)-2H-[1,2,3]triazol-4-yl]-2-(1-methyl-1H-indazol-6-yl)-acetamide]",330 nM
11,"COc1cc(Cn2ncc(NC(=O)Cc3ccc(C(C)C)cc3)n2)ccc1F [Example 153, N-[2-(4-Fluoro-3-methoxy-benzyl)-2H-[1,2,3]triazol-4-yl]-2-(4-isopropyl-phenyl)-acetamide]",70 nM
12,"COc1ccc(Cn2ncc(NC(=O)Cc3ccc(N4CCC(F)(F)C4)nc3)n2)cc1F [Example 126, 2-[6-(3,3-Difluoro-pyrrolidin-1-yl)-pyridin-3-yl]-N-[2-(3-fluoro-4-methoxy-benzyl)-2H-[1,2,3]triazol-4-yl]-acetamide]",47 nM
13,"Cc1ccc(Cn2ncc(NC(=O)Cc3ccc(C4(C)COC4)cc3)n2)cc1 [Example 67, N-[2-(4-Methyl-benzyl)-2H-[1,2,3]triazol-4-yl]-2-[4-(3-methyl-oxetan-3-yl)-phenyl]-acetamide]",66 nM
14,"O=C(Cc1ccc(N2CCC(F)(F)C2)nc1)Nc1cnn(Cc2ccc(F)c(F)c2)n1 [Example 17, N-[2-(3,4-Difluoro-benzyl)-2H-[1,2,3]triazol-4-yl]-2-[6-(3,3-difluoro-pyrrolidin-1-yl)-pyridin-3-yl]-acetamide]",7.3 nM
15,"Cc1cc(CC(=O)Nc2cnn(Cc3ccc(C#N)c(F)c3)n2)ccc1OCC(F)(F)F [Example 199, N-[2-(4-Cyano-3-fluoro-benzyl)-2H-[1,2,3]triazol-4-yl]-2-[3-methyl-4-(2,2,2-trifluoro-ethoxy)-phenyl]-acetamide]",17 nM
16,"O=C(Cc1ccc(N2CCC(F)(F)C2)nc1)Nc1cnn(Cc2ccc(OC(F)F)c(F)c2)n1 [Example 182, N-[2-(4-Difluoromethoxy-3-fluoro-benzyl)-2H-[1,2,3]triazol-4-yl]-2-[6-(3,3-difluoro-pyrrolidin-1-yl)-pyridin-3-yl]-acetamide]",13 nM
17,"Cc1ccc(Cn2ncc(NC(=O)Cc3ccc4c(cnn4C)c3)n2)cc1 [Example 69, N-[2-(4-Methyl-benzyl)-2H-[1,2,3]triazol-4-yl]-2-(1-methyl-1H-indazol-5-yl)-acetamide]",20 nM
18,"COc1c(F)cc(Cn2ncc(NC(=O)Cc3ccc(OC4CC(F)(F)C4)cc3)n2)cc1F [Example 146, 2-[4-(3,3-Difluoro-cyclobutoxy)-phenyl]-N-[2-(3,5-difluoro4-methoxy-benzyl)-2H-[1,2,3]triazol-4-yl]-acetamide]",810 nM
